Legend:
[1] = biological target: T1, FLT3 (Homo sapiens, UniProt P36888); experiment: SelectScreen FLT3 kinase dose response assay; format: biochemical; settings: ATP 100 micromolar; for inhibition at 1 µM: read-out: FLT3 Inhibition E1000 (percent inhibition at 1000 nMolar); for EC50: dose response, 4 parameter Hill equation, read-out: FLT3 Inhibition EC50
T1 construct: purchased Invitrogen (SelectScreen platform)
T1 sequence (P36888 27-993): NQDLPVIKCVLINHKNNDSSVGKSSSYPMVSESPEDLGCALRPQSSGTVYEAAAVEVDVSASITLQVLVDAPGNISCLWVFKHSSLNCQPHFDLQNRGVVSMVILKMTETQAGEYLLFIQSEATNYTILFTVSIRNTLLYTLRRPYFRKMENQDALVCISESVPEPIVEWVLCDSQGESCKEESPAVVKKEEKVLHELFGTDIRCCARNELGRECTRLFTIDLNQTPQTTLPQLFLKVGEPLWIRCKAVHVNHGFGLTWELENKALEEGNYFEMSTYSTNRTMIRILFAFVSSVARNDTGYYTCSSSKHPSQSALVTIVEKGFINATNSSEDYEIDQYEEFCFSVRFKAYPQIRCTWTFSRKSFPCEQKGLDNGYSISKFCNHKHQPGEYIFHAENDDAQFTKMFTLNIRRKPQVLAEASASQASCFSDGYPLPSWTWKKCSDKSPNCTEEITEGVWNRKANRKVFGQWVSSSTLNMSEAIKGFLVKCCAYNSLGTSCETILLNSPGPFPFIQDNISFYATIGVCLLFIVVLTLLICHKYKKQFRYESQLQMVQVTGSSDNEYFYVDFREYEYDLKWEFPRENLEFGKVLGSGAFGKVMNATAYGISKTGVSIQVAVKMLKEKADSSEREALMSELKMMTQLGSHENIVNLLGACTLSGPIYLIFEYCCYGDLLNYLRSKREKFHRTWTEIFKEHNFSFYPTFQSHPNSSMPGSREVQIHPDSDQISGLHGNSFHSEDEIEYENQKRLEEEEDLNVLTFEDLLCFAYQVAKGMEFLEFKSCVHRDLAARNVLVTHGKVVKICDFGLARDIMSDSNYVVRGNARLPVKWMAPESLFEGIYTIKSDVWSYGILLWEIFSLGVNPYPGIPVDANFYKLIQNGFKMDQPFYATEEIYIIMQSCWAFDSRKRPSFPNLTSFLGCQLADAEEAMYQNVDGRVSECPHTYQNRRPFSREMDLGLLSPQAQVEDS
Procedure: The terms “IC50” and “EC50” are used interchangeably. As used herein, “EC50” refers to nMolar concentration at median percent inhibition determined by dose respose (DR) assay. As used herein, the term “E1000” refers to percent inhibition at 1000 nMolar determined by assay.
Testing of the compounds described in this invention was carried out using the SelectScreen™ platform from Invitrogen, Inc. (Carlsbad. Calif., USA) and the details of its performance are readily viewed via the web by linking to: http://www.invitrogen.com/downloads/SelectScrn_Brochure.pdf.
Briefly, the approach is based on treating each specific kinase with a unique substrate and optical reporter system in the presence of ATP at 100 micromolar. In controls, the substrate is phosphorylated and a baseline optimal response is recorded.
The compounds were then re-tested by adding graded amounts of putative inhibitor which were added in 5 separate increments to generate a dose response curve. The latter is obtained by fitting to a 4 parameter Hill equation, a sigmoid saturation equation.
For the compounds of this invention, the experimental conditions were as follows. The 2× FLT3/Tyr 02 peptide mixture was prepared in 50 mM HEPES pH 7.5, 0.01 BRIJ-35, 10 mM MgCl2, 1 mM EGTA. The final 10 uL kinase reaction consists of 0.6-76.0 ng FLT3 and 2 uM Tyr 02 peptide in 50 mM HEPES pH 7.5, 0.01% BRIJ-35, 10 mM MgCl2, 1 mM EGTA. After 1 hour kinase reaction incubation, 5 uL of a 1:64 dilution of development reagent A was added.

[2] = biological target: T1, FLT3; experiment: Kinase EC50 (10 pt curve or estimate, ATP Kmapp); format: biochemical; settings: from 10 pt curve or estimate based on 1 μm inhibition assay at ATP Kmapp
[3] = biological target: T2, CSF-1R (Homo sapiens, UniProt P07333); experiment: Kinase EC50 (10 pt curve or estimate, ATP Kmapp); format: biochemical; settings: from 10 pt curve or estimate based on 1 μm inhibition assay at ATP Kmapp
T2 construct: purchased Invitrogen (SelectScreen platform)

[4] = test system: MdaMb231 cells; experiment: BrdU cell proliferation assay; format: cell-based; settings: for concentration at which cell proliferation was inhibited (BrdU): MdaMb231 cells, 24 hour treatment; for BrdU (Inhibition of cell proliferation): Table 5 summary, concentration inhibiting proliferation
Procedure: Representative compounds of the present invention were evaluated in a BrdU assay to determine their effect on the cell proliferation of MdaMb231 cells.
The effect of the inventive compounds on cell proliferation was analyzed by detecting 5-Bromo-2′-deoxy-uridine (BrdU) incorporation after 24 hour treatment with the test compounds. The cell proliferation ELISA BrdU kit (Roche™ cat. No. 11 647 229 001) was used according to manufacturer's protocol. Cells were plated at 10.000 cells/well. The next day compounds were added in concentration range of 2.5, 5, 10 and 20 μM.
After 24 hours, 12 μl/well BrdU labelling solution was added and cells were incubated for 6 hours at 37° C./5% CO2 before labeling solution was removed. Cells were fixed with 200 μl FixDenat™ solution for 30 minutes. After removal of fixative 100 μl BrdU-peroxidase working solution was added and cells were incubated for 90 minutes. Cells were subsequently washed three times. 100 μl substrate solution was added and after 30 minutes the absorbance was read at 370 nm.

T2 sequence (P07333 20-972): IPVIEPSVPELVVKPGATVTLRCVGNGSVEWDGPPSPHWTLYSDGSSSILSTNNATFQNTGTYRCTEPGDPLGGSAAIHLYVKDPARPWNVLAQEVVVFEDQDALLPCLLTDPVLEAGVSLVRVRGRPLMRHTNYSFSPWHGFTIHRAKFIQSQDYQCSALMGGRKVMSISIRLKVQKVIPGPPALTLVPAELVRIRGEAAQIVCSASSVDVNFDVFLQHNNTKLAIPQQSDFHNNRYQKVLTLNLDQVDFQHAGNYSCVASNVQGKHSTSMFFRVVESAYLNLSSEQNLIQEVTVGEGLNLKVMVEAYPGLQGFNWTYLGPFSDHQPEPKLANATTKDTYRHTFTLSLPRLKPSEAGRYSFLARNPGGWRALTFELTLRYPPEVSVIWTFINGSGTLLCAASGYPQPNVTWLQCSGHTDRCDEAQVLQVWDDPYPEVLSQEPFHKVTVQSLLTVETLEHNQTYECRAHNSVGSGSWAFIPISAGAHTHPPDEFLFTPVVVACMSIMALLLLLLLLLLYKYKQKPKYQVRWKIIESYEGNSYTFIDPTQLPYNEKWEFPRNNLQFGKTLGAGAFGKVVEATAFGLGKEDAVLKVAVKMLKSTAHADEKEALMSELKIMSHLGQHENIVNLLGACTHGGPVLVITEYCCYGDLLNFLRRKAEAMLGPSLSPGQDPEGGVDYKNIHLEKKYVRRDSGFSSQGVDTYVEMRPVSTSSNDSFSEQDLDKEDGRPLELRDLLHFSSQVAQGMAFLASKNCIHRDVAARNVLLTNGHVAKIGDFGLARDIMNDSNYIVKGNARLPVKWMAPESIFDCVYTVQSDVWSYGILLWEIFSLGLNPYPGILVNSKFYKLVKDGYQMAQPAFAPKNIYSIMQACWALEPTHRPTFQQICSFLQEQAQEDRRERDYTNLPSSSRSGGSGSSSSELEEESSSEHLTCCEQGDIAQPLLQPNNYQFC

inhibition at 1 µM ([1]; 1000 nMolar compound)	EC50 [1]	EC50 [2]	EC50 [3]	FLT3 Inhibition E1000 (percent inhibition at 1000 nMolar) ([1]; 1000 nMolar compound)	SMILES	concentration at which cell proliferation was inhibited (BrdU) [4]	BrdU (Inhibition of cell proliferation) [4]
100%	4 nM				CN(C)CCCCCNc1ccc2ncn3c4ccc5[nH]ncc5c4c(=O)c1c23 [(III)]		
98%	9 nM				CN(C)c1ccc2ncn3c4ccc5[nH]ncc5c4c(=O)c1c23 [(IX)]		
100%	5 nM				CCN(CC)c1ccc2ncn3c4ccc5[nH]ncc5c4c(=O)c1c23 [(VI)]		
99%	5 nM				CNc1ccc2ncn3c4ccc5[nH]ncc5c4c(=O)c1c23 [(VII)]		
87%	69 nM				CCN(CC)CCNc1ccc2ncn3c4ccc5[nH]ncc5c4c(=O)c1c23 [(VIII)]		
98%	11 nM	11 nM	280 nM		O=c1c2c(NCCCN3CCOCC3)ccc3ncn(c4ccc5[nH]ncc5c14)c32 [(X)]	20 µM	20 μm
98%	11 nM	5 nM	360 nM		CN(C)CCNc1ccc2ncn3c4ccc5[nH]ncc5c4c(=O)c1c23 [(XII)]	2.5 µM	2.5 μm
99%		9 nM	245 nM	98%	CC(CCN1CCOCC1)Nc1ccc2ncn3c4ccc5[nH]ncc5c4c(=O)c1c23 (centres unmarked) [(XVI)]	20 µM	5 μm
99%	8 nM	15 nM	950 nM		CN1CCN(CCCNc2ccc3ncn4c5ccc6[nH]ncc6c5c(=O)c2c34)CC1 [(XVII)]		>20 μm
98%	14 nM	14 nM	200 nM		CN(C)CCCNc1ccc2ncn3c4ccc5[nH]ncc5c4c(=O)c1c23 [Compound (IV)]	2.5 µM	2.5 μm
95%	30 nM				O=c1c2c(NCCN3CCOCC3)ccc3ncn(c4ccc5[nH]ncc5c14)c32 [Compound (V)]		
99%	11 nM	11 nM	490 nM		CCN(CC)CCCNc1ccc2ncn3c4ccc5[nH]ncc5c4c(=O)c1c23 [Compound (XV)]	20 µM	

SMILES	inhibition at 1 µM ([1]; 1000 nMolar compound)	EC50 [1]	EC50 [2]	EC50 [3]	FLT3 Inhibition E1000 (percent inhibition at 1000 nMolar) ([1]; 1000 nMolar compound)	concentration at which cell proliferation was inhibited (BrdU) [4]	BrdU (Inhibition of cell proliferation) [4]
CCN(CC)CCNc1ccc2ncn3c4ccc(O)cc4c(=O)c1c23 [Symadex, 5-(2-(diethylamino)ethylamino)-8-hydroxy-6H-imidazo[4,5,1-de]acridin-6-one, reference compound]	96%	24 nM	40 nM	430 nM			
